Laboratory results published in article PMC6877910, “Astrocyte-Targeted Transporter-Utilizing Derivatives of Ferulic Acid Can Have Multifunctional Effects Ameliorating Inflammation and Oxidative Stress in the Brain” (Oxidative Medicine and Cellular Longevity, 2019).

Tests used:
[1] = tested on: peroxidase activity of cyclooxygenases (COX); test: Peroxidase activity of cyclooxygenases in cell lysates (fluorometric kit); format: biochemical; settings: 100 μM; 30 min; assay does not differentiate COX from LOX
Method: A coupled oxidation-reduction fluorometric assay was used to assess the inhibitory effect of compounds (100 μM) together with positive controls on the peroxidase activity of cyclooxygenases (COX) (ab204699 Cyclooxygenase Activity Assay Kit, Abcam, Cambridge, UK). The method has been done and validated according to the manufacturer's protocol. Briefly, studied compounds (100 μM) and the reaction mixture were incubated with the cell lysates at room temperature and the reaction was initiated by adding arachidonic acid/NaOH solution. The fluorescence was read in a kinetic mode after every 15 seconds for 30 minutes by the EnVision plate reader (EnVision, PerkinElmer, Inc., Waltham, MA, USA) at λex 535 nm and λem 587 nm.

mTOR = test: Total amount of mTOR (ELISA) in cells; format: cell-based, mouse; settings: 48 h
Method: Enzyme-Linked Immunosorbent Assay (ELISA) kits were used (mTOR SimpleStep ELISA Kit and NFκB p65 Total SimpeStep ELISA Kit, Abcam, Cambridge, UK) to quantify mammalian (or mechanistic) target of rapamycin (mTOR) and transcription factor NF-κB amounts, respectively. […] The control wells were treated with the solvent only (0.5% DMSO). Cells were solubilized using the provided extraction buffer with the kit, incubated on ice for 20 minutes and centrifuged at 18 000 × g for 20 min at 4°C. The supernatants were stored at -80°C till the day of the analysis. Standards and samples were then analyzed following the manufacturer's protocol (ELISA sandwich method) and by reading the absorbance with the EnVision plate reader (EnVision, PerkinElmer, Inc., Waltham, MA, USA) at 450 nm. The results were analyzed as pmol of formed mTOR or NF-κB per mL.

purified human BACE1 = target: T1, purified human BACE1 (Homo sapiens, UniProt P56817); test: BACE1 FRET inhibition assay (SensoLyte 520); format: biochemical; settings: 0.25 μM; 30 min
T1 construct: purchased AnaSpec, Inc., Fremont, CA, USA SensoLyte 520 BACE1 Assay kit (catalogue number not given)
T1 sequence (P56817 46-501): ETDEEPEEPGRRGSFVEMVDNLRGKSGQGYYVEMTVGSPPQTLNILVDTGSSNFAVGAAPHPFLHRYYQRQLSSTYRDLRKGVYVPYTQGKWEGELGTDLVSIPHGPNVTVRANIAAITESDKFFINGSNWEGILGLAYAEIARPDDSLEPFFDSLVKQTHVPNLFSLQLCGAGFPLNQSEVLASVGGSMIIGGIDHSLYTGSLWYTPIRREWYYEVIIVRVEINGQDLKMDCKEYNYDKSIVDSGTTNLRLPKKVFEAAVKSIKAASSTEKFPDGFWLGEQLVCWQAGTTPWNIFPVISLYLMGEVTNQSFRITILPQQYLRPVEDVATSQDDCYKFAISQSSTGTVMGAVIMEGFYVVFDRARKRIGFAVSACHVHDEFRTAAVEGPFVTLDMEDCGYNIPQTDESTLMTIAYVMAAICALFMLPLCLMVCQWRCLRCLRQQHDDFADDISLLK
Text: A fluorometric assay was used to screen the inhibitory effect of the studied compounds on purified human BACE1 using a fluorescence resonance energy transfer (FRET) peptide technique (SensoLyte© 520 BACE1 Assay kit, AnaSpec, Inc., Fremont, CA, USA) according to the manufacturer's protocol. […] The sequence of the FRET peptide has been derived from the β-secretase cleavage site of β-amyloid precursor protein (APP) with Swedish mutation, which enhances β-secretase to process APP resulting in an early onset of AD. Thus, active β-secretase cleaved FRET substrate into two separate fragments resulting in the release of HiLyte™ Fluor 488 fluorescence that was measured by the EnVision plate reader (EnVision, PerkinElmer, Inc., Waltham, MA, USA) at λex 490 nm and λem 520 nm. […] The results were reported as percentages (%), with control sample representing 100% β-secretase activity.

O=C(O)Cc1ccccc1Nc1c(Cl)cccc1Cl [DCF, diclofenac]
Inhibition of peroxidase activity of COX enzymes [1]: 18%

NCC1(CC(=O)O)CCCCC1 [gabapentin]
Reduction of total amount of mTOR (mTOR; 100 μM): 46-49%

CN(C)C(=N)N=C(N)N [metformin]
Reduction of total amount of mTOR (mTOR; 100 μM): did not affect

CO[C@H]1C[C@@H]2CC[C@@H](C)[C@@](O)(O2)C(=O)C(=O)N2CCCC[C@H]2C(=O)O[C@H]([C@H](C)C[C@@H]2CC[C@@H](O)[C@H](OC)C2)CC(=O)[C@H](C)/C=C(\C)[C@@H](O)[C@@H](OC)C(=O)[C@H](C)C[C@H](C)/C=C/C=C/C=C/1C [rapamycin]
Reduction of total amount of mTOR (mTOR; 1 μM): 46-49%

KTEEISEVN-Sta-VAEF-NH2 [reference compound]
BACE1 inhibition (purified human BACE1): ca. 85%
